# Entries after “also recorded” stand apart in the source; their conditions may differ.
# What was measured:
# Hcn1 DEE mouse model = test: Pentylenetetrazole (PTZ) induced seizure, Hcn1 model; type: in vivo
# Protocol: (§1) Pentylenetetrazole (PTZ), a GABA receptor antagonist, can be used to create a common, chemically-induced seizure model, a model of generalized seizure.
# (§2) Mice were acclimated to experimental area for minimum 30 minutes before experimentation. All experiments were performed between 10:00 am and 12:30 pm. The treatment compounds and PTZ were always prepared fresh.
# (§3) Mice were randomly assigned either to different doses of Compound 1 (10 mg/kg, 1 mg/kg, or 0.1 mg/kg) or a vehicle control containing 0.5% methylcellulose and 0.2% tween 80, and dosed via oral gavage (p.o). Compound 1 and the vehicle control were administered 60 minutes before the injection of PTZ.
# (§4) PTZ (100 mg/kg) was dissolved in saline and administered subcutaneously (s.c) to the experimental mice. The latency to full tonic-clonic seizure with hind limb extension was measured. The animals were sacrificed either at the time of hind limb extension or 40 minutes after PTZ administration if no hind limb extension was recorded.
# (§5) Data were analyzed using a Mantel-Cox log-rank test. Brain tissue and plasma were collected from some mice for each dose of Compound 1 at the PTZ endpoint for PK analysis.
# hNaV1.1 [1] = target: T1, hNaV1.1 (Homo sapiens, UniProt P35498); test: Peak INa tonic block, patch clamp; type: cell-based
# Protocol: (§6) Tonic Block (TB): Tonic Block (TB) protocols used low stimulation rates (about 0.1 Hz) and negative potentials (−120 mV) to keep channels in closed (resting) states. Pharmacology was measured during peak INa in response to step to 0 mV. No leak subtraction was used.
# hNaV1.5 [2] = target: T2, hNaV1.5 (Homo sapiens, UniProt Q14524); test: Peak INa tonic block, patch clamp; type: cell-based
# Protocol: as §6
# hNaV1.2 [3] = target: T3, hNaV1.2 (Homo sapiens, UniProt Q99250); test: Peak INa tonic block, patch clamp; type: cell-based
# Protocol: as §6
# [4] = test system: heterozygous Kcnq2 K556E mice; test: Pentylenetetrazole (PTZ) induced seizure, Kcnq2 model; type: in vivo, mouse
# Protocol: as §1, §2, §3, §4, §5
# male CD-1 mice = test: Maximal electroshock induced seizure (MES) test; type: in vivo, mouse
# Protocol: Food and water were available ad libitum.
# VPA was prepared in saline (Vehicle 1). All solutions were protected from light. All compounds and vehicles were dosed at 10 ml/kg.
# The MES test was carried out over two days with 6 of 12 mice from each treatment group being tested on each day. Mice were brought to the test room at least one hour before the start of the experiment.
# A Grass S88x (Grass Technologies of Astro-Med, Inc., West Warwick, RI) Stimulus Isolation Unit (A385, WPI Inc., USA) was set to deliver a 50 mA square-wave stimulus, with a 0.8 second duration, a pulse width of 10 msec, and a frequency of 50 Hz. A pair of custom stainless steel electrodes were soaked in 0.2% Agar, and then the subject received bilateral transauricular stimulation through ear-clip electrodes. During the stimulation, mice were manually restrained. They were then released into the observation cage for convulsion observation for 60 seconds immediately after stimulation. Each mouse was observed continuously by individuals blinded to treatment conditions and results were recorded.
# Anti-seizure assessment endpoints were: (1) latency of hindlimb tonic flexion; (2) latency of hindlimb tonic extension; (3) total #hindlimb tonic flexions; (4) total #hindlimb tonic extensions; (5) latency to death; and (6) mortality rate
# From these fitted curves, ED50 and EC50 values were calculated.
# [5] = Compound 1 human pharmacokinetics as stated in trial rationale; type: in vivo; settings: predicted from current knowledge of pharmacokinetics
# [6] = test system: Scn8a^N1768D/+ transgenic mouse; test: Audiogenic induced seizures in Scn8a N1768D/+ mouse model; type: in vivo
# Protocol: Both male and female N1768D (D/+) mice, 8-12 weeks old, were used in the study. Compound 1 was administered orally (p.o.) at three doses (1 mg/kg, 3 mg/kg, 10 mg/kg) and also vehicle 1 hour prior to testing. The mice were randomized such that at the completion of the study each individual mouse had been evaluated at each test dose of Compound 1 and vehicle. A minimum of 3 days was allowed to elapse before retesting the mice. At the time of testing, mice were taken from their home cage and transferred to a clean test cage located in a separate testing room where they were allowed to acclimate for about 20 seconds before the onset of the acoustic stimulus. To induce audiogenic seizures, a 15 kHz signal was generated using Tone Generator software (NCH Software, Inc.), amplified using a Kinter K3118 stereo amplifier (Kinter USA), and converted to sound using a small 3-watt speaker lowered into the testing chamber. The stimulus was applied for 30 seconds unless a seizure was detected before the 30-second time point, in which case the audiogenic stimulus was terminated. Videos of the event were recorded using a laptop webcam. On the final day of testing, brains and plasma were collected from the D/+ mice immediately after audiogenic seizure testing to determine concentrations of Compound 1. A separate cohort of 8 age-matched WT mice were also included (n=2/dose level) to achieve a sample size of n=4 for PK for each dose level. Brain and plasma specimens were submitted for bioanalytical analysis.
# healthy participants = test: 2-part Phase 1 trial (28 days; OXC combination): safety and tolerability; type: in vivo, human
# Excerpt: This was a 2-part randomized, placebo-controlled Phase 1 trial in healthy participants aged 18-55 years. […] PD effects were examined on quantitative EEG (qEEG; resting and vigilant conditions) and stimulated EEG using auditory steady state response (ASSR). A total of 48 participants were enrolled; Part A, n=30; Part B, n=18.
# hNaV1.1 [7] = target: T1, hNaV1.1; test: Persistent INa, patch clamp; type: cell-based
# Protocol: (§7) Late (persistent) current Block: The inhibition of ATX-II activated late current was measured using a 200 ms voltage step to 0 mV. Protocols used low stimulation rates (about 0.1 Hz) and negative potentials (−120 mV) to keep channels in closed (resting) states. Pharmacology was measured as the mean INa during the final 20 ms of the step to 0 mV and leak subtraction was not used.
# hNaV1.5 [8] = target: T2, hNaV1.5; test: Persistent INa, patch clamp; type: cell-based
# Protocol: as §7
# hNaV1.2 [9] = target: T3, hNaV1.2; test: Persistent INa, patch clamp; type: cell-based
# Protocol: as §7
# CA1 pyramidal neurons = test: Intrinsic excitability (evoked action potentials) of CA1 pyramidal neurons, brain slice whole-cell current clamp; type: cell-based, mouse
# Protocol: Three hundred micrometer coronal hippocampal slices were cut on a vibratome (VT1200; Leica) for whole-cell patch-clamp experiments. Slices were incubated for a minimum of 1 hour in the incubation solution at room temperature before patching.
# Brain slices were transferred to a submerged recording chamber on an upright microscope (Slicescope Pro 1000; Scientifica) and were perfused (2 ml/min) with the extracellular artificial cerebral spinal fluid (aCSF) recording solution at 32° C.
# CA1 pyramidal neurons were identified visually in the stratum pyramidale of the CA1 region of the hippocampus, using infrared-oblique illumination microscopy with a 40× water-immersion objective (Olympus) using a camera (Dage IR-2000; Dage). […] Patch-clamp recordings were made using a micromanipulator (MPC-200; Sutter) and Axon Multiclamp 700B patch-clamp amplifier (MDS). Data were acquired using pClamp software (v10; MDS) using a sampling rate of 50 kHz and low pass Bessel filtered at 10 kHz (Digidata 1550b; Axon).
# Studies were performed using whole-cell current clamp recording mode. […] Once the whole-cell configuration was obtained for 2 minutes, a holding current was injected to maintain a membrane potential of approximately −70 mV. Current steps (injected current of between −60 to 340 pA in 20 pA steps, 400 ms duration) (FIG. 1B)) were applied in current clamp mode. The amplitude of current injections was relative to the holding current. A test pulse (−5 pA amplitude, 50 ms duration) was applied 650 ms after the termination of the main current step. The inter sweep interval was 5 seconds (0.2 Hz). To be included in the study, a cell had to have an access resistance of less than 20 M2 and a holding current of less than −200 pA. Once baseline action potential firing was determined in the presence of the extracellular aCSF recording solution (baseline), Compound 1 (300 nM or 3 μM) was washed onto the slice for 5 minutes before repeating the action potential generating protocol (FIG. 1B).
# Data were analyzed using Axograph X software. Individual action potentials were identified and counted using a +50 mV amplitude threshold relative to pre-event baseline. The frequencies of action potentials generated were plotted for each of the current injections to create an input-frequency relationship for each cell. Action potential amplitudes were determined relative to the pre-event baseline at the +200 pA current injection step for each cell. Once an action potential count had less than three cells contributing to the averaged amplitude, it was excluded from analysis. For statistical comparisons between groups, the total number of action potentials fired per cell was calculated. Statistical analysis was performed using GraphPad Prism software (v8). […]
# T3 sequence (Q99250 whole entry): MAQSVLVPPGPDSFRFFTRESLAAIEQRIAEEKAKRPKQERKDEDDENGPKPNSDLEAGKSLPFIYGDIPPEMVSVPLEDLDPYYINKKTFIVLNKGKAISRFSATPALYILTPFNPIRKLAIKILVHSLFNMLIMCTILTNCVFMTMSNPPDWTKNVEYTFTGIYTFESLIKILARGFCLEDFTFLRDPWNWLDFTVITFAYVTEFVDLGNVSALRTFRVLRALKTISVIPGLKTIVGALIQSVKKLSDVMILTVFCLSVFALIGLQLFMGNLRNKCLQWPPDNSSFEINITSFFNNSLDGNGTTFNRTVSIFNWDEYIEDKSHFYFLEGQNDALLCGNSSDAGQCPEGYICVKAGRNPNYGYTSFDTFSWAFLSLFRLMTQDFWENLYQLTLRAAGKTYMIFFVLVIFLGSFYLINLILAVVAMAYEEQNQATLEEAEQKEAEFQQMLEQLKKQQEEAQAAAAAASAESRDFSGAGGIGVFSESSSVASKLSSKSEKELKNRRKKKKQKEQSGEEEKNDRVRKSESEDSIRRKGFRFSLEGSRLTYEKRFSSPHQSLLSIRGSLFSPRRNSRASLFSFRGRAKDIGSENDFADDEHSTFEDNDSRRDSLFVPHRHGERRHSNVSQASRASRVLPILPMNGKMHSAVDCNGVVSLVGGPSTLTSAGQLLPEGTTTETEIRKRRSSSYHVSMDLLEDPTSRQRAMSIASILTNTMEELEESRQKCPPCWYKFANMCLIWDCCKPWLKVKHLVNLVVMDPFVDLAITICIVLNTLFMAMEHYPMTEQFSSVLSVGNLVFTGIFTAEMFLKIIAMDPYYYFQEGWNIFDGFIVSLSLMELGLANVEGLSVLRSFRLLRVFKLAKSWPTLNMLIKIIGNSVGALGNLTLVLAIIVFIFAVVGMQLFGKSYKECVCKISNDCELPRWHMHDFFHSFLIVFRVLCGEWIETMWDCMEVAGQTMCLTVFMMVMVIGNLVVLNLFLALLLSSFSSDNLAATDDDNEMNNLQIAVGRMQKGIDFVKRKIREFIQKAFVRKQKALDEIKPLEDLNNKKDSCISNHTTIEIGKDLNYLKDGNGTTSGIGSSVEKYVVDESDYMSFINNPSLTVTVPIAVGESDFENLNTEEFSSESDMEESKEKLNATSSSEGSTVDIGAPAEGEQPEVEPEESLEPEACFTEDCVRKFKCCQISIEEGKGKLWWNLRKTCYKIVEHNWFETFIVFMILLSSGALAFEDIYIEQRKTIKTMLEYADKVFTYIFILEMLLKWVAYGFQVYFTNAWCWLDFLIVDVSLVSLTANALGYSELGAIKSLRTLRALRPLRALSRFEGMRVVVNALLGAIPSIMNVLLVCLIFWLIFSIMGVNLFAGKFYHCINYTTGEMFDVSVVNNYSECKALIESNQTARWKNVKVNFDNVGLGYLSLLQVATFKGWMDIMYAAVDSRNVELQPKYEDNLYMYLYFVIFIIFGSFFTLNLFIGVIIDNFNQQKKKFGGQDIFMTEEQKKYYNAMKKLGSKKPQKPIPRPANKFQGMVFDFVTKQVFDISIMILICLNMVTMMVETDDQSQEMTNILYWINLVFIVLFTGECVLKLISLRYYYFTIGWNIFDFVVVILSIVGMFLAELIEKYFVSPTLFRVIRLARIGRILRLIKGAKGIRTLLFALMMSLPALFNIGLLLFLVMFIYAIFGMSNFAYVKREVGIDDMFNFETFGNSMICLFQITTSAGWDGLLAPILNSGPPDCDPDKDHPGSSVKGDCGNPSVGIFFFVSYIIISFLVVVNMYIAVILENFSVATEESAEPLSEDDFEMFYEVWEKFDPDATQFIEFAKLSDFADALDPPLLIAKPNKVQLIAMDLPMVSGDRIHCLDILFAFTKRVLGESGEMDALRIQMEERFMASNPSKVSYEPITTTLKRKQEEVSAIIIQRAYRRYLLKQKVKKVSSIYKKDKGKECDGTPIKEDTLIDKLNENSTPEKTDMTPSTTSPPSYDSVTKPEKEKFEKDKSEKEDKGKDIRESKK
# T2 sequence (Q14524 1-2015 isoform Q14524-2): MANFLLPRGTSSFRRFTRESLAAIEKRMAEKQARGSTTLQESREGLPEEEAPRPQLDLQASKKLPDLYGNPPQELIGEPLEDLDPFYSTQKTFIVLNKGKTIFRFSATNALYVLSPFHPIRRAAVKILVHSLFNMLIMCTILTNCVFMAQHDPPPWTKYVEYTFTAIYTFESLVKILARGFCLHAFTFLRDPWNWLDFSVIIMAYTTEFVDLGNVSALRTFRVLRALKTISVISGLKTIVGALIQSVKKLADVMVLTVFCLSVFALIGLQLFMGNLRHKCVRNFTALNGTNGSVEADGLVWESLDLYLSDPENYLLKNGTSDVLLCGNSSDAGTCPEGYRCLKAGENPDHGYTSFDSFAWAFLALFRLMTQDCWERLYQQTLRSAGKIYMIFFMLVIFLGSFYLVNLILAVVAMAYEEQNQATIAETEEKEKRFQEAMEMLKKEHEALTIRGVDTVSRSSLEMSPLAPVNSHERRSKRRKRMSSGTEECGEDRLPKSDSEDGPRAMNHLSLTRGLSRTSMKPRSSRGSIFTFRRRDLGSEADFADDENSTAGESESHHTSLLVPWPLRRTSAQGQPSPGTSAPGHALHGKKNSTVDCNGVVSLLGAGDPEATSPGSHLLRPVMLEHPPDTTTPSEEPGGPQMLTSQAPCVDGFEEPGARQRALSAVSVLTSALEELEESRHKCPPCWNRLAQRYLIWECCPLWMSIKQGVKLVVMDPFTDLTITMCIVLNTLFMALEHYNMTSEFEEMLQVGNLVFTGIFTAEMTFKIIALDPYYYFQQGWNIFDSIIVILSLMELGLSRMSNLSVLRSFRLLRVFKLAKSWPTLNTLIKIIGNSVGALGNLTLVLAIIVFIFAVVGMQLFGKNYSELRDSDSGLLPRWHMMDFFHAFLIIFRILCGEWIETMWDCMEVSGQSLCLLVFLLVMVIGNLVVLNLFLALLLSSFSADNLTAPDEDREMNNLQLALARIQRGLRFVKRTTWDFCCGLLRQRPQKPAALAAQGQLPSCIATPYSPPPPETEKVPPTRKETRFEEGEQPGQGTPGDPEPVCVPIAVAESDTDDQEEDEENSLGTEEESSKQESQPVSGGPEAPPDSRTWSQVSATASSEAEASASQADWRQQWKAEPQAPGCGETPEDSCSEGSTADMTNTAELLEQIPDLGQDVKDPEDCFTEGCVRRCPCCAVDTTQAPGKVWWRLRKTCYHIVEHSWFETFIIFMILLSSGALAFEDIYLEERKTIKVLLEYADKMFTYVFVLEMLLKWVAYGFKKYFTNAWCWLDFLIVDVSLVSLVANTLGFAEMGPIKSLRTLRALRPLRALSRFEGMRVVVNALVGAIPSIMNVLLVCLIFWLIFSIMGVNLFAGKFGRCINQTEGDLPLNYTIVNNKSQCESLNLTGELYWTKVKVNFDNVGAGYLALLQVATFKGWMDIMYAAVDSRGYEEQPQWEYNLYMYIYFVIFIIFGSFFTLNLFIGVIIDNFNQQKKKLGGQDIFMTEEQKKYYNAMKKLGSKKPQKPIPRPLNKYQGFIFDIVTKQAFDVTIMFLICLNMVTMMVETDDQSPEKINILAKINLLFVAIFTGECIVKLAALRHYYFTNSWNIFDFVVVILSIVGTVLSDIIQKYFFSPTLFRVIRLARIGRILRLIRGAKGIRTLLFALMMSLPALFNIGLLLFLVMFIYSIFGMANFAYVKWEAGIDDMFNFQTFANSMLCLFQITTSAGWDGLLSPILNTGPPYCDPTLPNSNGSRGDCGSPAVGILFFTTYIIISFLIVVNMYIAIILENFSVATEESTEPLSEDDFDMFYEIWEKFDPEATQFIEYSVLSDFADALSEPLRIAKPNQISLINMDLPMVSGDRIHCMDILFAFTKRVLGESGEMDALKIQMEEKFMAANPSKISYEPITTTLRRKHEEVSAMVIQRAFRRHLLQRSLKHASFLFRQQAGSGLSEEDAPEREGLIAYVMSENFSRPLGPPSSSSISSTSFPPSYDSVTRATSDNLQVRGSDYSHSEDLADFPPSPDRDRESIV
smiles,measurement,setting,value
"CCOC(F)(F)c1nnc2cnc(-c3cnc(OCC(F)(F)F)c(F)c3)cn12 [Compound 1, 3-(ethoxydifluoromethyl)-6-(5-fluoro-6-(2,2,2-trifluoroethoxy)pyridin-3-yl)-[1,2,4]triazolo[4,3-a]pyrazine]",protection from hindlimb extension (FIG. 14E),Hcn1 DEE mouse model,robust anticonvulsant activity
same,IC50,hNaV1.1 [1],18900 nM
same,preference for persistent INa over peak INa tonic block,hNaV1.1 [1],173 fold
same,preference for persistent INa over peak INa tonic block,hNaV1.5 [2],> 174 fold
same,peak INa tonic block inhibition,hNaV1.5 [2]; at 30 000 nmol/L,12%
same,IC50,hNaV1.2 [3],13700 nM
same,preference for persistent INa over peak INa tonic block,hNaV1.2 [3],80 fold
same,efficacy in KCNQ2 K556E PTZ seizure model,"[4]; 10 mg/kg p.o., 60 min before PTZ 100 mg/kg s.c.",highly efficacious
same,protection from hindlimb extension (FIG. 14C),"[4]; Kcnq2 DEE mouse model, PTZ",robust anticonvulsant activity
same,latency to seizures following bilateral transauricular stimulation,"male CD-1 mice; 3 mg/kg p.o., 30 min before test",significantly increased
same,mice that did not exhibit tonic seizures,male CD-1 mice; Compound 1 10 mg/kg,11 of 12
same,"protection (increase in latency) against MES-induced tonic hindlimb seizures, dose-response",male CD-1 mice; Compound 1 0.3-10 mg/kg po,dose-dependent increases in latency; also recorded: dose-dependent protection
same,ED50,"male CD-1 mice; mouse MES, read-out: Efficacy (MES) ED50, increasing latency to tonic extension seizures",2 mg/kg
same,time predicted to achieve 90% steady state,[5],about 6 weeks
same,protection from audiogenic seizures,[6]; 10 mg/kg p.o.,complete protection
same,inhibition of audiogenic seizures,"[6]; 1, 3, 10 mg/kg p.o., 1 hour prior to testing",dose dependent inhibition
same,protection from seizures (FIG. 14B),[6]; Scn8a N1768D DEE mouse model,completely block seizures
same,tolerability in healthy adults,"healthy participants; 90 mg, Part A",well tolerated
same,TEAEs mild in severity,healthy participants; Part A,71%
same,TEAEs moderate,healthy participants; Part A,29%
same,TEAEs severe,healthy participants; Part A,0%
same,number of TEAEs,healthy participants; Part A,35
same,participants with TEAEs,healthy participants; Part A (n=30 enrolled),13
same,TEAEs mild or moderate,"healthy participants; Part A, 90 mg QD vs placebo",100%
same,"review of ALT/AST increases and rhabdomyolysis, causal association",healthy participants; Part B,did not identify a causal association
same,TEAEs mild or moderate,"healthy participants; Part B, OXC + 120 mg Compound 1 vs OXC alone",96%
same,TEAEs mild in severity,"healthy participants; Part B, both arms",51%
same,TEAEs moderate,"healthy participants; Part B, both arms",45%
same,TEAEs severe,"healthy participants; Part B, both arms",4%
same,number of TEAEs,"healthy participants; Part B, both arms",74
same,participants with TEAEs,"healthy participants; Part B, both arms (n=18 enrolled)",16
same,"safety findings in vital signs, physical exams, ECGs, C-SSRS",healthy participants; Parts A and B,no clinically significant safety findings
same,IC50,hNaV1.1 [7],109 nM
same,IC50,hNaV1.5 [8],172 nM
same,IC50,hNaV1.2 [9],172 nM
same,"intrinsic excitability, number of evoked APs",CA1 pyramidal neurons; 0.3 μmol/L (peak INa VDB IC50),significantly reduced
same,AP amplitude,"CA1 pyramidal neurons; +200 pA current injection, 0.3 μmol/L Compound 1, 45 μmol/L CBZ",without compromising
same,number of action potentials generated / action potential firing frequency vs baseline,"CA1 pyramidal neurons; Compound 1 at 0.3 and 3 μM, wildtype mice",significantly reduced
